For test [1], the target named is T1, Nuclear receptor ROR-gamma (Homo sapiens, UniProt P51449).
T1 sequence (P51449 whole entry): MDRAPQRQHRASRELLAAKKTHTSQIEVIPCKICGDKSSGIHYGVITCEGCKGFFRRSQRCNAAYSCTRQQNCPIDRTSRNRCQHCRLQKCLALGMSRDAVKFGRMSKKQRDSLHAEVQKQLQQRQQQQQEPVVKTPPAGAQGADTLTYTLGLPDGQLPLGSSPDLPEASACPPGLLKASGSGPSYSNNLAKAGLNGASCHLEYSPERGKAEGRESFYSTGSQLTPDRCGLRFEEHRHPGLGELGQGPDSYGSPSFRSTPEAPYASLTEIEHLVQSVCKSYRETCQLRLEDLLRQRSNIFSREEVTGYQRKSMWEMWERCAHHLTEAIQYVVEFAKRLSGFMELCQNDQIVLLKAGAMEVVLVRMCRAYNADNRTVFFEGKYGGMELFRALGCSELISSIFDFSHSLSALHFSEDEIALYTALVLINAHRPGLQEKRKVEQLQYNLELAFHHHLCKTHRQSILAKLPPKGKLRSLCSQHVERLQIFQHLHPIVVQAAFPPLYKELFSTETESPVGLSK
Nature of the test: Inverse agonist activity at APC-labeled biotinylated RORgammat LBD (unknown origin) assessed as inhibition of N-(2-chloro-6-fluorobenzyl)-N-((20-methoxy-[1,10-biphenyl]-4-yl)methyl)benzenesulfonamide-induced co-activator europium-labeled biotinylated SRC1 peptide recruitment after 1 hr by LANCE-FRET assay. On the technique in general: In TR-FRET formats the signal depends on donor and acceptor labels being close together.

Test [2] deals with T2, Nuclear receptor ROR-gamma (Mus musculus, UniProt P51450).
T2 sequence (P51450 whole entry): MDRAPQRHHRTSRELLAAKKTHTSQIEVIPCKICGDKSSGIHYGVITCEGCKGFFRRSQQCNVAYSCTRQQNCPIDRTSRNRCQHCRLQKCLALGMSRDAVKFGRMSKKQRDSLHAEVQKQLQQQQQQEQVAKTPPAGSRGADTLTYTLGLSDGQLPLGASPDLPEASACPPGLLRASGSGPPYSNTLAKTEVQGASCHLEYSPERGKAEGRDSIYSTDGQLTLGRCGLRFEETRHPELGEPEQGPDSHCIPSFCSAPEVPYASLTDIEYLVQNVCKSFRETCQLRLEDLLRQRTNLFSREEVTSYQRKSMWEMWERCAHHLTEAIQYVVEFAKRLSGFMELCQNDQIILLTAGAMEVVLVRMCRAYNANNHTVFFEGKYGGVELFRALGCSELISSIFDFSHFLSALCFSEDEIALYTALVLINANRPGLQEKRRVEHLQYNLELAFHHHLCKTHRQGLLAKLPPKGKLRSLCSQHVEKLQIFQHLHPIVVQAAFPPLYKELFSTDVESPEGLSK
As to the kind of experiment: Inverse agonist activity at RORgammat in mouse CD4 positive T cells assessed as inhibition of Th17 cell differentiation by measuring IL-17 release after 4 days by cellular staining based flow cytometry.

Usually IC50 stands for the point on the concentration scale where inhibition reaches its midpoint. Turning to `N#Cc1cccc(C(=O)Nc2cccc3c2ccn3C2CCN(C(=O)C3CCCC3)CC2)c1`, the IC50 entry in test [1] is “Not Active”.
In the case of `N#Cc1cccc(C(=O)Nc2ccc3c(c2)[C@H](N2CC4CCC(C2)N4C(=O)C2CCCCC2)CC3)c1`, in test [2], the IC50 entry is on record as “Not Active”.
Take `O=C(CC1CCOCC1)Nc1cccc2c1CCC2N1CC2CCC(C1)N2C(=O)C1CCCC1` (stereo not drawn): in test [1] (read-out: IC50), the half-maximal inhibitory concentration (IC50) is greater than 10 µM.

Values taken from ChEMBL document CHEMBL4339183, “Discovery of N-indanyl benzamides as potent RORγt inverse agonists” (Eur J Med Chem, 2019).
